The record followed here is patent US12415794B2 (Edgewise Therapeutics, Inc., priority 2018, dated 2025).

Test [1] concerns the target T1, cardiac myofibrils (myosin ATPase).
T1 construct: frozen myofibril pellets obtained from cardiac tissue; from tissue
The test is described as follows: Cardiac Myofibril ATPase Assay (counter screen). In kind it is biochemical. Conditions: myofibrils 1.0 mg/mL, KCl omitted. The protocol: (§1) Overview: Myosin ATPase activity is assessed by using a coupled reaction system, in which ADP generated by the myosin ATPase function is coupled to the disappearance of NADH through the pyruvate kinase/lactate dehydrogenase (PK-LDH) system. ATPase activity produces ADP, which is used as a substrate for PK to produce pyruvate and regenerate ATP. The pyruvate is then used as a substrate by LDH to oxidize NADH to NAD+. The rate of the reaction is monitored through the time-dependent disappearance of NADH using absorbance at 340 nm. Inhibition of ATPase activity by the assayed compounds is indicated by a reduced rate of NADH loss, relative to vehicle-treated controls, over the experimental time window. To assess the selectivity of the assayed compounds for skeletal myofibrils, the compounds are counter-screened in cardiac myofibrils.
Example 13: Cardiac Myofibril ATPase Assay
Following example 11, the counter screen was done using frozen myofibril pellets obtained from cardiac tissue. The assay was done in the same manner as above, with the following notable exceptions: the final well concentration of myofibrils was 1.0 mg/mL and KCl was omitted from the recipe.
Compounds of Table 1 to 3 were tested, and results of the assays appear in Tables 5a-5c herein. A=IC50 is less than or equal to 10 μM; B=IC50 is greater than 10 μM and less than 100 μM; C=IC50 is greater than 100 μM; and […].

The target in test [2] is skeletal myofibrils (myosin ATPase). Description: Skeletal Myofibril ATPase Assay. The format is biochemical. The protocol: FIG. 7 depicts the buffer preparation procedures of Buffer A and Buffer B for the skeletal myofibril ATPase assay described in Example 12. Buffers were stored on ice until use.
Example 12: Skeletal Myofibril ATPase Assay
as §1
Materials: The following stock solutions and reagents were used in the Skeletal Myofibril ATPase Assay:
Stock Solutions of pCa buffer. Combine PIPES, CaCl2, and EGTA solutions with 70 mL of water. Adjust pH to 7.0 and bring final volume to 100 mL.
Skeletal Myofibril ATPase Assay Procedure: BSA, ATP, NADH, PEP, and DTT solutions were thawed at room temperature, then transferred to ice. Pellet-frozen myofibrils were transferred with approximately twice the required volume into a sufficiently large tube and capped. Myofibrils were thawed by rolling in a water bath for approximately 15 min at room temperature and cooled on ice. Buffers A and B were prepared by adjusting volumes as necessary for required number of wells and stored on ice. 0.5 μL of the compounds to be assayed were added into wells. 25 μL of Buffer A was dispensed into the wells, followed by 25 μL of Buffer B. The wells were measured for absorbance at 340 nm, using a kinetic protocol in which the wells are read every 1.5-2 min for 45 min. The slope of the data was approximated by subtracting the minimum absorbance value from the maximum value for each well. This was accomplished either in the SoftMax Pro software or in a spreadsheet program such as Excel. Using GraphPad Prism 8.0, the data was normalized by assigning a value of 100% to the 1% DMSO vehicle wells. Typically, a normalized 0% value was simply assigned to a (Max−Min) value of 0. The normalized data was fit to a Four Parameter Logistic sigmoidal equation, constraining the bottom to be 0 or greater. Compounds of Table 1, 2, and 3 were tested and results of the assay appear in Tables 4a-4c. A=IC50 is less than or equal to 10 μM; B=IC50 is greater than 10 μM and less than 100 μM; C=IC50 is greater than 100 μM.

SMILES strings stand for the structures.

T1 sequence (P12883 whole entry): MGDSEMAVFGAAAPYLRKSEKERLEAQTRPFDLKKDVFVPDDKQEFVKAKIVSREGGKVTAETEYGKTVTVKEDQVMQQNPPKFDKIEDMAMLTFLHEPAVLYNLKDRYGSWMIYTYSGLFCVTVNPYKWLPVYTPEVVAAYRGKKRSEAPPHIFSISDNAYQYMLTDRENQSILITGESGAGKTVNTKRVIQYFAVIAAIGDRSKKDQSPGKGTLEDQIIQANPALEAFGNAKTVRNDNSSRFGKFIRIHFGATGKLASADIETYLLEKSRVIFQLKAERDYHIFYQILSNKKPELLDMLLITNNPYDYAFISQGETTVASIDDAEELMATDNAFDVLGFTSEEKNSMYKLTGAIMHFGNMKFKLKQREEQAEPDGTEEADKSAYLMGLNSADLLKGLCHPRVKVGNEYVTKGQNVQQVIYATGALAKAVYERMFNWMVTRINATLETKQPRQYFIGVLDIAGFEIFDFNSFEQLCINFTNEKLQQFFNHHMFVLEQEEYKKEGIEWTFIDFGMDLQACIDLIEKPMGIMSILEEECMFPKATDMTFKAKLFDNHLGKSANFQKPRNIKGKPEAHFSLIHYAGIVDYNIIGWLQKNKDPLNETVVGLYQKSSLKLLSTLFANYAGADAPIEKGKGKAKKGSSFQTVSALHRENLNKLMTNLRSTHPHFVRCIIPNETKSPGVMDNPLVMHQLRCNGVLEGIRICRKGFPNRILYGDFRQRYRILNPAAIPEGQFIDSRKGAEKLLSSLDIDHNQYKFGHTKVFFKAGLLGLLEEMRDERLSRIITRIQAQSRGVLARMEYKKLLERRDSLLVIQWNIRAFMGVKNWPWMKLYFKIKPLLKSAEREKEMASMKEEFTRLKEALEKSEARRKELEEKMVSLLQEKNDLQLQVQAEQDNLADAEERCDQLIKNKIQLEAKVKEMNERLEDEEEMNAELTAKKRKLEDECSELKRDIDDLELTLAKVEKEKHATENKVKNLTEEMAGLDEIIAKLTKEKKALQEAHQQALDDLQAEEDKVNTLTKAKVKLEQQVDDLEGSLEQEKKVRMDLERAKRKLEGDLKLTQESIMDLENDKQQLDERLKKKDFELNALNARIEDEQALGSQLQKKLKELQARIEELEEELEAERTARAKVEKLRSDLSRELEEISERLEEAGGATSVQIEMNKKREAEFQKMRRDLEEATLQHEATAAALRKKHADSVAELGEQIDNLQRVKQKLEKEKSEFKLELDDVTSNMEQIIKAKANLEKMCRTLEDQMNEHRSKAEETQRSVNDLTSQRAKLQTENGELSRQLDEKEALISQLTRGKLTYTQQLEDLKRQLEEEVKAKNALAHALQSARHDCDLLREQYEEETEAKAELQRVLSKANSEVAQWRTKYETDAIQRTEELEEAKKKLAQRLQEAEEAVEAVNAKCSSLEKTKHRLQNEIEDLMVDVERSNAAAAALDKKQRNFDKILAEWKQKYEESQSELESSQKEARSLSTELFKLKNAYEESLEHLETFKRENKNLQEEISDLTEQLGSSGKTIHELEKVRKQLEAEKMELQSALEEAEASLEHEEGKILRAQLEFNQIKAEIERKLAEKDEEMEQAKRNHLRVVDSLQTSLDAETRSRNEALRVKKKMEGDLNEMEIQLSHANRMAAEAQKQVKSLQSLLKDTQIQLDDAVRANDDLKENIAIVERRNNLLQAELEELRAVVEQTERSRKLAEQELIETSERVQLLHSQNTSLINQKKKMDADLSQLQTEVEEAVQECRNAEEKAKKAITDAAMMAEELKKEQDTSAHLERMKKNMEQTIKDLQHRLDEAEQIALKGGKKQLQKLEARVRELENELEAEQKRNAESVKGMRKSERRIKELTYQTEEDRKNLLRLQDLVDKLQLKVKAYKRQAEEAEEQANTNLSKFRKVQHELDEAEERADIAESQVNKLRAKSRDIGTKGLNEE
T1 sequence (P08590 whole entry partner): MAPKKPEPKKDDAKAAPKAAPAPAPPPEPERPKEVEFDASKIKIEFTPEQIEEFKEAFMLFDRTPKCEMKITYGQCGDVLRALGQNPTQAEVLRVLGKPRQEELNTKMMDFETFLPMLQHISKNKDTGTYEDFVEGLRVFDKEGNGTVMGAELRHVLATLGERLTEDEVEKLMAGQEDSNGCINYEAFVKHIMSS
T1 sequence (P10916 whole entry partner): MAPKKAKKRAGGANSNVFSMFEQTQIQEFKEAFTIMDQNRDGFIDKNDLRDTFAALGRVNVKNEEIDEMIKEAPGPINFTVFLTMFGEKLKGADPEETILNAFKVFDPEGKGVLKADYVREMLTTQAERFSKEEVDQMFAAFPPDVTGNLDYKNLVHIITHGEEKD

Consider `COc1ccc(-c2ccc(=O)n(CC(=O)NCc3ccccc3Cl)n2)cc1F` [IIIa-24, N-(2-chlorobenzyl)-2-(3-(3-fluoro-4-methoxyphenyl)-6-oxopyridazin-1(6H)-yl)acetamide], for which the IC50 in test [1] (Table 5C) was over 100 µM; in test [2] (Table 4C), 10 to 100 µM.
For `CCNC(=O)Cn1nc(-c2cnc(Nc3ccc(Cl)cc3)nc2)ccc1=O` [Compound I-1, 2-(3-(2-((4-chlorophenyl)amino)pyrimidin-5-yl)-6-oxopyridazin-1(6H)-yl)-N-ethylacetamide], the IC50 in test [1] (Table 5A) is over 100 µM; in test [2] (Table 4A), under 10 µM.
With `O=C(Cn1nc(-c2ccc(Cl)cc2)ccc1=O)Nc1cccc2[nH]ccc12` [IIIc-19, 2-(3-(4-chlorophenyl)-6-oxopyridazin-1(6H)-yl)-N-(1H-indol-4-yl)acetamide], the values for the IC50 in test [1] (Table 5C) and in test [2] (Table 4C) were over 100 µM and under 10 µM, respectively.
In the case of `CCNC(=O)Cn1nc(-c2ccc(OCC3(F)COC3)nc2)ccc1=O` [Compound I-23, N-ethyl-2-(3-(6-((3-fluorooxetan-3-yl)methoxy)pyridin-3-yl)-6-oxopyridazin-1(6H)-yl)acetamide], the IC50 was over 100 µM in test [1] (Table 5A) and 10 to 100 µM in test [2] (Table 4A).
As to `COc1ccc(-c2ccc(=O)n(CC(=O)Nc3cc(Cl)ccc3Cl)n2)cc1` [IIIb-10, N-(2,5-dichlorophenyl)-2-(3-(4-methoxyphenyl)-6-oxopyridazin-1(6H)-yl)acetamide], the figures for the IC50 in test [1] (Table 5C) and in test [2] (Table 4C) were over 100 µM and under 10 µM, respectively.
Consider `COc1ccc(-c2ccc(=O)n(CC(=O)NCc3ccno3)n2)cc1` [IIIa-34, N-(isoxazol-5-ylmethyl)-2-(3-(4-methoxyphenyl)-6-oxopyridazin-1(6H)-yl)acetamide], for which the IC50 in test [1] (Table 5C) and in test [2] (Table 4C) was over 100 µM in each case.
Regarding `COc1ccc(-c2ccc(=O)n(CC(=O)Nc3cc(OC)ccc3OC)n2)cc1` [IIIb-25, N-(2,5-dimethoxyphenyl)-2-(3-(4-methoxyphenyl)-6-oxopyridazin-1(6H)-yl)acetamide], the IC50 is over 100 µM in test [1] (Table 5C) and 10 to 100 µM in test [2] (Table 4C).
As for `CCNC(=O)Cn1nc(-c2ccc(OCC(F)(F)F)nc2)ccc1=O` [Compound I-13, N-ethyl-2-(6-oxo-3-(6-(2,2,2-trifluoroethoxy)pyridin-3-yl)pyridazin-1(6H)-yl)acetamide], the IC50 in test [1] (Table 5A) is over 100 µM; in test [2] (Table 4A), 10 to 100 µM.
Take `CCc1ccc(-c2ccc(=O)n(CC(=O)NCc3ccccc3Cl)n2)cc1` [IIIa-18, N-(2-chlorobenzyl)-2-(3-(4-ethylphenyl)-6-oxopyridazin-1(6H)-yl)acetamide]: the IC50 in test [1] (Table 5C) was over 100 µM; in test [2] (Table 4C), under 10 µM.
As to `CCCNC(=O)Cn1nc(-c2ccc(OC(F)F)cc2)ccc1=O` [II-12, 2-(3-(4-(difluoromethoxy)phenyl)-6-oxopyridazin-1(6H)-yl)-N-propylacetamide], the IC50 was over 100 µM in test [1] (Table 5B) and 10 to 100 µM in test [2] (Table 4B).
In the case of `CCNC(=O)Cn1nc(-c2ccc(C3CC3)cc2)ccc1=O` [IIIa-19], the IC50 in test [1] (Table 5C) was over 100 µM; in test [2] (Table 4C), under 10 µM.
The like results for `COc1ccc(-c2ccc(=O)n(CC(=O)NCc3ccc(Cl)cc3)n2)cc1` [IIIb-31, N-(4-chlorobenzyl)-2-(3-(4-methoxyphenyl)-6-oxopyridazin-1(6H)-yl)acetamide] were, in that order, over 100 µM and 10 to 100 µM.
`CCNC(=O)Cn1nc(-c2ccc(OC(F)F)cc2)ccc1=O` [II-10, 2-(3-(4-(difluoromethoxy)phenyl)-6-oxopyridazin-1(6H)-yl)-N-ethylacetamide]: the IC50 is over 100 µM in test [1] (Table 5B) and under 10 µM in test [2] (Table 4B).
With `O=C(Cn1nc(-c2ccc(Cl)cc2)ccc1=O)Nc1ccccc1F` [IIIc-27, 2-(3-(4-chlorophenyl)-6-oxopyridazin-1(6H)-yl)-N-(2-fluorophenyl)acetamide], the IC50 is over 100 µM in test [1] (Table 5C) and 10 to 100 µM in test [2] (Table 4C).
The matching figures for `COc1ccc(-c2ccc(=O)n(CC(=O)NCc3ccccc3Cl)n2)c(C)c1` [IIIa-22, N-(2-chlorobenzyl)-2-(3-(4-methoxy-2-methylphenyl)-6-oxopyridazin-1(6H)-yl)acetamide]: over 100 µM and 10 to 100 µM.
Consider `COc1ccc(-c2ccc(=O)n(CC(=O)Nc3ccc4c(c3)OCO4)n2)c(F)c1` [IIIb-33, N-(benzo[d][1,3]dioxol-5-yl)-2-(3-(2-fluoro-4-methoxyphenyl)-6-oxopyridazin-1(6H)-yl)acetamide], for which the IC50 in test [1] (Table 5C) is over 100 µM; in test [2] (Table 4C), 10 to 100 µM.
Regarding `CCCCNC(=O)Cn1nc(-c2ccc(OC(F)F)cc2)ccc1=O` [II-17, N-butyl-2-(3-(4-(difluoromethoxy)phenyl)-6-oxopyridazin-1(6H)-yl)acetamide], the IC50 in test [1] (Table 5B) was over 100 µM; in test [2] (Table 4B), 10 to 100 µM.
As to `O=C(Cn1nc(-c2ccc(OCC(F)(F)F)cc2)ccc1=O)NCc1ccc[nH]c1=O` [II-26, N-((2-oxo-1,2-dihydropyridin-3-yl)methyl)-2-(6-oxo-3-(4-(2,2,2-trifluoroethoxy)phenyl)pyridazin-1(6H)-yl)acetamide], the figures for the IC50 in test [1] (Table 5B) and in test [2] (Table 4B) were over 100 µM and 10 to 100 µM, respectively.
On to `CCNC(=O)Cn1nc(-c2ccc(OCCC(F)(F)F)nc2)ccc1=O` [Compound I-10, N-ethyl-2-(6-oxo-3-(6-(3,3,3-trifluoropropoxy)pyridin-3-yl)pyridazin-1(6H)-yl)acetamide], for which the 50% inhibitory concentration (IC50) in test [1] (Table 5A) was over 100 µM; in test [2] (Table 4A), 10 to 100 µM.
In the case of `COc1ccc(-c2ccc(=O)n(CC(=O)Nc3ccc(Cl)cc3Cl)n2)cc1` [IIIb-11, N-(2,4-dichlorophenyl)-2-(3-(4-methoxyphenyl)-6-oxopyridazin-1(6H)-yl)acetamide], the results for the IC50 in test [1] (Table 5C) and in test [2] (Table 4C) were over 100 µM and under 10 µM, respectively.
For the molecule `O=C(Cn1nc(-c2cnc(NC34CC(C3)C4)nc2)ccc1=O)NC1CCC1` [Compound I-50, 2-(3-(2-(bicyclo[1.1.1]pentan-1-ylamino)pyrimidin-5-yl)-6-oxopyridazin-1(6H)-yl)-N-cyclobutyl-acetamide], the IC50 in test [1] (Table 5A) was over 100 µM; in test [2] (Table 4A), under 10 µM.
On to `CC(C)NC(=O)Cn1nc(-c2ccc(OC(F)(F)F)cc2)ccc1=O` [II-4], for which the IC50 in test [1] (Table 5B) is over 100 µM; in test [2] (Table 4B), under 10 µM.
With `COc1ccc(-c2ccc(=O)n(CC(=O)Nc3ncccc3C)n2)cc1` [IIIb-27, 2-(3-(4-methoxyphenyl)-6-oxopyridazin-1(6H)-yl)-N-(3-methylpyridin-2-yl)acetamide], the IC50 in test [1] (Table 5C) is over 100 µM; in test [2] (Table 4C), 10 to 100 µM.
As to `CC(=O)Nc1ccc(-c2ccc(=O)n(CC(=O)NC(C)C)n2)cc1` [II-14, 2-(3-(4-acetamidophenyl)-6-oxopyridazin-1(6H)-yl)-N-isopropylacetamide], the half-maximal inhibitory concentration (IC50) in test [1] (Table 5B) was over 100 µM; in test [2] (Table 4B), 10 to 100 µM.
Turning to `COc1ccc(-c2ccc(=O)n(CC(=O)NCc3cc(F)ccc3Cl)n2)cc1` [IIIa-7, N-(2-chloro-5-fluorobenzyl)-2-(3-(4-methoxyphenyl)-6-oxopyridazin-1(6H)-yl)acetamide], the IC50 is over 100 µM in test [1] (Table 5C) and under 10 µM in test [2] (Table 4C).
For `O=C(Cn1nc(-c2ccc(NC34CC(C3)C4)nc2)ccc1=O)NC1CCC1` [Compound I-54, 2-(3-(6-(bicyclo[1.1.1]pentan-1-ylamino)pyridin-3-yl)-6-oxopyridazin-1(6H)-yl)-N-cyclobutylacetamide], the concentration for half-maximal inhibition (IC50) in test [1] (Table 5A) was over 100 µM; in test [2] (Table 4A), under 10 µM.
`CCNC(=O)Cn1nc(-c2ccc(OC(F)F)cc2)cc(C)c1=O` [II-21, 2-(3-(4-(difluoromethoxy)phenyl)-5-methyl-6-oxopyridazin-1(6H)-yl)-N-ethylacetamide]: the half-inhibitory concentration (IC50) in test [1] (Table 5B) and in test [2] (Table 4B) was over 100 µM in each case.
Take `COc1ccc(-c2ccc(=O)n(CC(=O)NCc3cccc(F)c3)n2)cc1` [IIIb-32, N-(3-fluorobenzyl)-2-(3-(4-methoxyphenyl)-6-oxopyridazin-1(6H)-yl)acetamide]: the IC50 in test [1] (Table 5C) is over 100 µM; in test [2] (Table 4C), 10 to 100 µM.
